Here are results for 6 compounds from patent US9993436B2, “Porous hollow fiber anti-solvent crystallization-based continuous method of polymer coating on submicron and nanoparticles” (New Jersey Institute of Technology, priority 2014, dated 2018).

Data set [1] is described as follows: Particle size distribution by laser diffraction particle size analyzer. Type of data set: physicochemical. The procedure:
A laser diffraction particle size analyzer (LS230, Beckman Coulter, Brea, Calif.) was used to identify the extent of particle agglomeration. An aqueous micron-size suspension of the particle sample was prepared after 30 s of sonication to break the soft bonding between particles. After that a few drops of the suspension were introduced in the inlet of the instrument for analysis.
Residence time plays an important role in the PHFAC process since precipitation of both the polymer and the drug can be affected by the variation of residence time in the shell side of the module. Residence time can be simply altered by changing the shell-side feed solution flow rate. To identify the influence of the feed solution flow rate on the particle size distribution (PSD) of GF crystals, the solution containing the dissolved drug without any polymer was passed through the PHFAC module at different rates. The particle size distribution will be affected by the extent of supersaturation created and the rate at which supersaturation is created. Both are influenced by the rate at which the anti-solvent is introduced from the tube side to the shell side for a given feed solution flow rate.
Since one of the objectives of the study is to understand the impact of this novel PHFAC coating technique on the synthesized drug particles, the as-received uncoated GF particles and the Eudragit-coated GF particles obtained from the PHFAC were selected for particle size distribution analysis. A suspension of the samples in water was carefully dropped into the inlet of the laser diffraction particle size analyzer. The median size of the uncoated GF sample (11.6 μm) was close to the manufacturer's specification (10 μm). After polymer coating, the median size of the coated drug particles increased to 19.2 μm. One reason for the median size increase is obviously due to the coating which increases the particle size. Another reason is that the coating of GF by the polymer brings in a certain amount of agglomeration. Attachment of neighboring coated drug particles will take place due to the sticking tendency of the polymer-formed liquid bridges.
A laser diffraction particle size analyzer (LS 230, Beckman Coulter, Brea, Calif.) was used to determine the particle size distribution. An aqueous particle suspension of the particle sample was prepared by introducing the dry sample powder into DI water and sonicating it for about 30 seconds to break the soft bonding.

A short description of data set [2]: Dissolution test, USP II paddle method, UV at 296 nm. To be noted: up to 50 minutes; 0.27% SDS solution 900 mL, 37° C., paddle 50 rpm; FIG. 8. The data set is classed as physicochemical. The procedure:
Dissolution tests for the uncoated and coated Griseofulvin particles were determined via a Distek dissolution tester (North Brunswick, N.J.). According to the USP II paddle method, 0.27% of SDS solution with 900 mL volume was added into the vessel as a buffer solution. Temperature of the medium was maintained at 37° C. and a paddle stirring speed of 50 rpm was used. The sample used was equivalent to a dose of 35 mg of GF, and dropped into a dissolution vessel containing the buffer solution. Samples having a volume of 6 mL were taken out at 1, 3, 5, 10, 20, 30, 40, 50 and 80 min and immediately analyzed by UV spectroscopy (52100UV+, Cole-Parmer, Vernon Hills, Ill.) at a wavelength of 296 nm. As a blank benchmark for the test, a 0.27% SDS buffer solution was measured first.
To illustrate the advantages of a coated drug for controlled release, dissolution tests were performed on three samples: as-received drug, uncoated drug, and polymer-coated drug.

For data set [3] the following is noted: cited from earlier work.
Another data set is described as follows: physchem. From the text: Eudragit RL 100 (Mw, 150,000; a copolymer of methyl methacrylate, ethyl acrylate and methacrylic acid ester) from Evonik-Degussa (Parsippany, N.J.) was employed as the coating polymer. Drug particles of Griseofulvin (GF) from Letco (Decatur, Ala.) were used without further treatment. […] Sodium dodecyl sulfate (SDS) was used as a surfactant (Sigma-Aldrich). Deionized water was used as the tube side anti-solvent liquid. The Nylon 6 hollow fibers were obtained from ENKA America Inc. (Asheville, N.C.).

[4] abbreviates: drug crystals from PHFAC module without any polymer in the feed solution, various shell/tube side flow rates.

SMILES strings stand for the structures. Values after ≈ are worked out from the molar mass of the structure shown.

Regarding `COC1=CC(=O)C[C@@H](C)[C@]12Oc1c(Cl)c(OC)cc(OC)c1C2=O` [X2, Griseofulvin], in data set [1] (setting [4]), the Median size is reported as 11.83 μm, the d10 was 2.117 μm and the d90 is listed as 30.30 μm.

As for `COC1=CC(=O)C[C@@H](C)[C@]12Oc1c(Cl)c(OC)cc(OC)c1C2=O` [X1, Griseofulvin], in data set [1] (setting [4]), the Median size came to 7.333 μm, the d10 was determined as 4.977 μm and the d90 is 15.29 μm.

As for `COC1=CC(=O)C[C@@H](C)[C@]12Oc1c(Cl)c(OC)cc(OC)c1C2=O` [X0, Griseofulvin], in data set [1] (setting [4]), the Median size came to 1.617 μm, the d10 is recorded as 1.001 μm and the d90 is listed as 2.219 μm.

On to `COC1=CC(=O)C[C@@H](C)[C@]12Oc1c(Cl)c(OC)cc(OC)c1C2=O` [uncoated GF, Griseofulvin], for which, in data set [2], the “dissolution profile (comparison of curves)” value is recorded as “essentially similar dissolution curves”.

In data set [1] (setting [4]), `COC1=CC(=O)C[C@@H](C)[C@]12Oc1c(Cl)c(OC)cc(OC)c1C2=O` [X3, Griseofulvin] returned a Median size of 11.76 μm, a d10 of 2.939 μm and a d90 of 26.62 μm.

As to `COC1=CC(=O)C[C@@H](C)[C@]12Oc1c(Cl)c(OC)cc(OC)c1C2=O` [GF, Griseofulvin], in data set [3], the “median size, manufacturer's specification” value is listed as 10 μm. Also, the Median size in data set [1] (suspension in water, FIG. 4) amounted to 11.6 μm. Also, in “physchem”, the solubility in water result is “practically insoluble”. In the data set “physchem” (organic solvent or mixture), the solubility was 116 mM (≈ 40.9 mg/mL).

As a reminder, the solubility is the dissolved amount per volume that the medium holds.
